“Also recorded” adds a separate entry of the source.

Test [1] deals with T1, ABD-L253P binding to actin (Homo sapiens, UniProt O15020, L253P).
T1 construct: the β-III-spectrin (human) ABD residues 1 to 284; His-SUMO (cleaved yes); made in house; host or cells: E. coli BL21(DE3), vector pE-SUMOpro; actin from rabbit psoas muscle tissue
The test can be described thus: F-actin and ABD cosedimentation assay. The note with it: for Effect on ABD-L253P to actin cosedimentation: 10 μM Hit compound. The procedure:
(§1) Actin was purified from acetone powder derived from the psoas muscle of New Zealand white rabbit (Oryctolagus cuniculus) ([46]). Filamentous (F)-actin was stored for up to 3 days on ice before use in binding assays. Within an hour of the binding assay, the F-actin was clarified at 100,000g at 4 °C for 10 min prior to setting up binding assays. The L253P β-III-spectrin ABD was expressed in E. coli BL21(DE3) (Novagen). The ABD was purified and the His-SUMO tag proteolytically removed, as previously described ([14]), except size-exclusion chromatography was not performed due to the high purity of the ABD protein. Lifeact-mCherry protein was similarly prepared. A Bradford assay was performed to determine clarified F-actin and ABD protein concentrations.
(§2) F-actin and ABD binding assays were performed as previously described ([10]). In brief, binding assays used 1 μM ABD protein, 1 μM F-actin, and 1 to 50 μM compound (as indicated) or DMSO control for a total reaction volume of 60 μl in F-buffer containing 10 mM Tris, pH 7.5, 150 mM NaCl, 0.5 mM ATP, 2 mM MgCl2, and 1 mM DTT. Following 30 min incubation at room temperature (21 °C). F-actin was pelleted using centrifugation at 100,000g at 25 °C for 30 min. Unbound ABD in the supernatant was measured following SDS-PAGE and Coomassie blue staining in accord ([10]). In addition, control cosedimentations assays that lacked actin were performed to test if compounds cause ABD aggregation. F-actin and Lifeact-mCherry binding assays were undertaken with 2 μM Lifeact-mCherry, 30 μM F-actin, and 1 to 50 μM compound (as indicated) or DMSO control for a total reaction volume of 80 μl in F-buffer. For a no-actin binding control, an assay sample with no F-actin was also set up. Binding reactions were allowed to reach equilibrium at room temperature (21 °C) for 30 min, and then F-actin was pelleted by centrifugation at 100,000g at 25 °C for 30 min. The amount of unbound Lifeact-mCherry was sampled by loading 7 μl of spin supernatant on a low-volume black bottom 384-well plate (Greiner). Amount of mCherry was determined by acquiring fluorescence spectrum peak intensity at ∼600 nm using a spectral unmixing plate reader (Fluorescence Innovations, Inc) equipped with a 532 nm laser (Laserglow Technologies, Ontario, Canada) for excitation, 532 nm long-pass filter for emission, and PMT for emission detection. The fraction of Lifeact-mCherry bound to F-actin was determined by subtracting from one the fraction of supernatant fluorescence intensity relative to the no-actin control sample:(3) Lifeactboundfraction=1−Fcompound/DMSO/FNo−actin where Fcontrol/DMSO is the peak mCherry fluorescence of assay samples containing compound or DMSO control, and Fno-actin is the peak mCherry fluorescence of assay samples that contained no F-actin.

Test [2] concerns the target T2, ABD L253P (Homo sapiens, UniProt O15020, L253P).
T2 construct: the β-III-spectrin (human) ABD residues 1 to 284; His-SUMO (cleaved yes); made in house; host or cells: E. coli BL21(DE3), vector pE-SUMOpro
The test can be described thus: Sedimentation of ABD L253P without actin (aggregation). The note with it: for Effect on ABD pelleting without actin (aggregation): 10 μM Hit compound, n = 4. The method, then:
In addition to a reduction in cell viability, the primary and counter screen may be sensitive to compounds that promote ABD-L253P protein aggregation. […] Our assay measuring ABD-L253P cosedimentation with actin is not sensitive to ABD aggregation, as it is designed to work under conditions where ∼90% ABD-L253P cosediments with actin. Nevertheless, we repeated these measurements in the absence of actin.
as §2

In test [3] the target is T3, Lifeact-mCherry binding to actin (Oryctolagus cuniculus, UniProt P68135).
T3 construct: from tissue; host or cells: actin: rabbit psoas muscle; Lifeact-mCherry: made in house in E. coli (pE-SUMOpro)
Nature of the test: F-actin and Lifeact-mCherry cosedimentation assay. The method, then:
as §1, §2

Test [4] relates to GFP-ABD-L253P to mCherry nonspecific FRET. The test can be described thus: Counter-screen FRET assay (GFP-ABD-L253P + mCherry, nonspecific FRET) in HEK293-6E cells. Type of test: cell-based. An excerpt:
With a constant amount of GFP-ABD-L253P expressed, increased Lifeact-mCherry expression increases FRET with an exponential plateau to 0.12 (Fig. 2A). To measure the nonspecific component of our FRET readout, we concurrently tested expression of mCherry in place of Lifeact-mCherry. For comparison, the Lifeact-mCherry and mCherry fluorescence intensity values (normalized to 1:1 GFP-ABD:Lifeact-mCherry sample) are plotted on the X-axis for samples transfected with different donor-to-acceptor DNA ratios. […] With the trade-off between high FRET and minimal nonspecific FRET, the donor:acceptor ratio 1:2 was chosen for the experiments that followed (Fig. 2A). […]
At 2 × 10^6 cells/ml, HEK293-6E cells were transfected with GFP-ABD-L253P or GFP-ABD-WT (2.4 μg), Lifeact-mCherry (2.4–16.8 μg), mCherry (1.2–16.8 μg), and/or pTT5 (0.8–17.6 μg), as indicated, using the 293fectin protocol (Thermo Fisher Scientific) with 20 μg total DNA. […] Cell viability and concentration were determined using trypan blue assay and a Countess cell counter (Invitrogen). […]
Time-resolved fluorescence waveforms for each well were fitted based on a one-exponential decay function using least-squares minimization global-analysis software, as detailed previously ([32]). […]

T1 sequence (O15020 1-284 L253P): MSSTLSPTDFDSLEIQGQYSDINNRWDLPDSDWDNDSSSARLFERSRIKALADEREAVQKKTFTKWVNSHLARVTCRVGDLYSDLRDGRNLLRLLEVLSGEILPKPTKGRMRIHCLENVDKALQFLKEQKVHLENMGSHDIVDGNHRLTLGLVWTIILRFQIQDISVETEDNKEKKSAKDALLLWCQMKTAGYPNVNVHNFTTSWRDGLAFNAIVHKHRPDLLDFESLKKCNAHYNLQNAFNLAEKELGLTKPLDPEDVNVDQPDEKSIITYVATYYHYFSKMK
T2 sequence (O15020 1-284 L253P): as above

With `O=C(O)c1cc([N+](=O)[O-])ccc1NCCCc1ccccc1` [NPPB], in test [1], the “Effect on ABD-L253P to actin cosedimentation” value is “do not significantly alter”. Also, the “Effect on ABD pelleting without actin (aggregation)” value in test [2] is recorded as “do not significantly alter”. For the same compound, the “Effect on actin-Lifeact cosedimentation” value in test [3] (10 μM Hit compound) was “decreased”.

For `CCOc1nc2cccc(C(=O)O)c2n1Cc1ccc(-c2ccccc2-c2nnn[nH]2)cc1` [candesartan], in test [1], the “Effect on ABD-L253P to actin cosedimentation” value is recorded as “do not significantly alter”. Moreover, in test [2], the “Effect on ABD pelleting without actin (aggregation)” value is reported as “trend toward increasing; also recorded: do not significantly alter”.

`CO[C@H]1C[C@H](CC[C@H](C)[C@H](O)[C@H](C)[C@H]2OC(=O)/C=C/C(C)=C/C[C@H](O)C[C@@H]3C=CC[C@@H](C[C@H](OC)[C@@H](C)[C@@H](O)C[C@@H](O)[C@H](C)[C@@H]([C@@H](C)[C@@H](O)[C@@H](C)CC[C@H]4C[C@H](OC)C[C@H](C)O4)OC(=O)/C=C/C(C)=C/C[C@H](O)C[C@@H]4C=CC[C@@H](C[C@H](OC)[C@@H](C)[C@@H](O)C[C@@H](O)[C@@H]2C)O4)O3)O[C@@H](C)C1` [swinholide A]: in test [1] (3 μM swinholide A, 50 μM tegaserod, n = 4), the “Effect on ABD-L253P cosedimentation with actin” value is reported as “ablation”. Further, in test [2] (1.6 μM swinholide A), the “Effect on ABD sedimentation without actin” value is reported as “did not induce”. The “Effect on counter-screen FRET readout” value in test [4] (swinholide A 3 μM, tegaserod 50 μM, relative to DMSO) is recorded as “did not significantly alter”. Besides, in test [3] (3 μM swinholide A, 50 μM tegaserod), the “Effect on Lifeact-mCherry cosedimentation with actin” value is listed as “reduces”.

Turning to `CC(C)(C)c1ccc(/C=C/C(=O)Nc2ccc3c(c2)OCCO3)cc1` [AMG 9810], the “Effect on ABD-L253P to actin cosedimentation” value in test [1] is on record as “do not significantly alter”. In addition, the “Effect on ABD pelleting without actin (aggregation)” value in test [2] is on record as “do not significantly alter”.

`CCCCCCCC/C=C\CCCCCCCC(=O)NCc1ccc(O)c(OC)c1` [olvanil]: the “Effect on ABD-L253P to actin cosedimentation” value in test [1] was “do not significantly alter”. For the same compound, the “Effect on ABD pelleting without actin (aggregation)” value in test [2] is “do not significantly alter”. For the same compound, in test [4] (dose response, GFP-ABD-L253P:mCherry 1:2 and 1:4), the “Effect of Hit compound on counter-screen FRET” value is “no significant effect”.
